Source: US10399932B2, “Inhibitors of indoleamine-2,3-dioxygenase for the treatment of cancer” (BRISTOL-MYERS SQUIBB COMPANY, priority 2015, dated 2019)

molecular target: human IDO1 (Homo sapiens, UniProt P14902); test: Assessment of human IDO-1 inhibitory activity in HEK cells (human IDO1/HEK293 cells, Ehrlich reagent, absorbance at 490 nm); format: cell-based; set-up: expressed in transfected cells; conditions: In Vitro Potency in the HEK Human IDO-1 Cellular Assay
Description: Exemplary compounds were tested for inhibition of IDO activity.
HEK293 cells were transfected with a pCDNA-based mammalian expression vector harboring human IDO1 cDNA (NM 002164.2) by electroporation. They were cultured in medium (DMEM with 10% FBS) containing 1 mg/ml G418 for two weeks. Clones of HEK293 cells that stably expressed human IDO1 protein were selected and expanded for IDO inhibition assay.
The human IDO1/HEK293 cells were seeded at 10,000 cells per 50 μL per well with RPMI/phenol red free media contains 10% FBS in a 384-well black wall clear bottom tissue culture plate (Matrix Technologies LLC) 100 nL of certain concentration of compound was then added to each well using ECHO liquid handling systems. The cells were incubated for 20 hours in 37° C. incubator with 5% CO2.
The compound treatments were stopped by adding trichloroacetic acid (Sigma-Aldrich) to a final concentration at 0.2%. The cell plate was further incubated at 50° C. for 30 minute. The equal volume supernatant (20 μL) and 0.2% (w/v) Ehrlich reagent (4-dimethylaminobenzaldehyde, Sigma-Aldrich) in glacial acetic acid were mixed in a new clear bottom 384-well plate. This plate was then incubated at room temperature for 30 minute. The absorbance at 490 nm was measured on Envision plate reader.
Compound IC50 values were calculated using the counts of 500 nM of a reference standard treatment as one hundred percent inhibition, and counts of no compound but DMSO treatment as zero percent inhibition.

Sequence of human IDO1 (P14902 whole entry): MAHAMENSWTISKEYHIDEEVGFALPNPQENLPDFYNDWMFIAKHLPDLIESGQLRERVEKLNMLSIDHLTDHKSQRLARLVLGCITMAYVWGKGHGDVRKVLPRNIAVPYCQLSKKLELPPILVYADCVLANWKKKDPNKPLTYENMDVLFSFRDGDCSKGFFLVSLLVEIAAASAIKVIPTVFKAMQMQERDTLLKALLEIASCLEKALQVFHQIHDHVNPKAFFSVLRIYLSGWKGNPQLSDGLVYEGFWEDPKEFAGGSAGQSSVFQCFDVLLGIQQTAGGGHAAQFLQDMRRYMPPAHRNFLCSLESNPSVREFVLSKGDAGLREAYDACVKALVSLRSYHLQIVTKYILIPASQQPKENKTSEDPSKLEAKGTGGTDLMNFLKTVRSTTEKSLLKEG

| Compound | IC50 [nM] |
| --- | --- |
| CCC(CC(=O)O)c1ccc(N2CC3CC2CN3Cc2ccccc2)c(NC(=O)Nc2ccc(C)cc2)c1 (single isomer, unassigned) [667 E1] | > 50 |
| CCC(CC(=O)O)c1ccc(N2CC3CC2CN3Cc2ccccc2)c(NC(=O)Nc2ccc(C)cc2)c1 (single isomer, unassigned) [667 E2] | > 50 |
| COCC(CC(=O)O)c1ccc(N(CC(C)C)C2CCCCC2)c(NC(=O)Nc2ccccc2F)c1 (single isomer, unassigned) [1125 E1] | < 5 |
| COCC(CC(=O)O)c1ccc(N(CC(C)C)C2CCCCC2)c(NC(=O)Nc2ccccc2F)c1 (single isomer, unassigned) [1125 E2] | < 5 |
| Cc1ccc(NC(=O)Nc2cc(C(CC(=O)O)C3CC3)ccc2N(CC(C)C)C2CCOCC2)cc1 (single isomer, unassigned) [1202 E1] | < 5 |
| Cc1ccc(NC(=O)Nc2cc(C(CC(=O)O)C3CC3)ccc2N(CC(C)C)C2CCOCC2)cc1 (single isomer, unassigned) [1202 E2] | < 5 |
| CC(CC(=O)O)c1ccc(N(CC(C)(C)O)C2CCCCC2)c(Nc2ccc(Cl)c(OCC(F)(F)F)c2)c1 (single isomer, unassigned) [Example 55, 3-(3-((4-chloro-3-(2,2,2-trifluoroethoxy)phenyl)amino)-4-(cyclohexyl(2-hydroxy-2-methylpropyl)amino)phenyl) butanoic acid] | > 50 |
| CCOc1ncc(Nc2cc(C(CC)CC(=O)O)ccc2N(CC)C2CCCOC2)cn1 (single isomer, unassigned) [Example 72, 3-(3-((2-ethoxypyrimidin-5-yl)amino)-4-(ethyl(tetrahydro-2H-pyran-3-yl)amino)phenyl)pentanoic acid] | < 5 |
| CCC(CC(=O)O)c1cc(F)c(N(CC(C)C)CC(C)C)c(Nc2ccc3nc(C)sc3c2)c1 (single isomer, unassigned) [Example 111, 3-(4-(diisobutylamino)-3-fluoro-5-((2-methylbenzo [d]thiazol-6-yl)amino)phenyl)pentanoic acid] | > 50 |
| CCc1ccc(Nc2cc(C(CC)CC(=O)O)cc(F)c2N(CC(C)C)CC(C)C)cc1 (single isomer, unassigned) [Example 112, 3-(4-(diisobutylamino)-3-((4-ethylphenyl)amino)-5-fluorophenyl)pentanoic acid] | < 50 |
| CCOc1ccc(Nc2cc(C(CC)CC(=O)O)cc(F)c2N(CC(C)C)CC(C)C)cc1 (single isomer, unassigned) [Example 113, 3-(4-(diisobutylamino)-3-((4-ethoxyphenyl)amino)-5-fluorophenyl)pentanoic acid] | < 50 |
| CCC(CC(=O)O)c1cc(F)c(N(CC(C)C)CC(C)C)c(Nc2ccc(OCC(F)(F)F)cc2)c1 (single isomer, unassigned) [Example 114, 3-(4-(diisobutylamino)-3-fluoro-5-((4-(2,2,2-trifluoroethoxy)phenyl)amino)phenyl)pentanoic acid] | > 50 |
| CCC(CC(=O)O)c1cc(F)c(N(CC(C)C)CC(C)C)c(Nc2ccc(Cl)cc2)c1 (single isomer, unassigned) [Example 115, 3-(3-((4-chlorophenyl)amino)-4-(diisobutylamino)-5-fluorophenyl)pentanoic acid] | < 5 |
| CCC(CC(=O)O)c1cc(F)c(N(CC(C)C)CC(C)C)c(Nc2ccc(F)cc2)c1 (single isomer, unassigned) [Example 116, 3-(4-(diisobutylamino)-3-fluoro-5-((4-fluorophenyl)amino)phenyl)pentanoic acid] | < 5 |
| CCC(CC(=O)O)c1cc(F)c(N(CC(C)C)CC(C)C)c(Nc2ccc3c(c2)OC(F)(F)O3)c1 (single isomer, unassigned) [Example 117, 3-(3-((2,2-difluorobenzo [d][1,3]dioxol-5-yl)amino)-4-(diisobutylamino)-5-fluorophenyl)pentanoic acid] | < 5 |
| CCC(CC(=O)O)c1cc(F)c(N(CC(C)C)CC(C)C)c(Nc2cnc(OC)nc2)c1 (single isomer, unassigned) [Example 120, 3-(4-(diisobutylamino)-3-fluoro-5-((2-methoxypyrimidin-5-yl)amino)phenyl) pentanoic acid] | < 5 |
| CCC(CC(=O)O)c1cc(F)c(N(CC(C)C)CC(C)C)c(Nc2ccnc(N3CCOCC3)n2)c1 (single isomer, unassigned) [Example 121, 3-(4-(diisobutylamino)-3-fluoro-5-((2-morpholinopyrimidin-4-yl)amino)phenyl) pentanoic acid] | > 50 |
| CCC(CC(=O)O)c1cc(F)c(N(CC(C)C)CC(C)C)c(Nc2ccc(OCC3CC3)cc2)c1 (single isomer, unassigned) [Example 122, 3-(3-((4-(cyclopropylmethoxy)phenyl)amino)-4-(diisobutylamino)-5-fluorophenyl)pentanoic acid] | < 50 |
| CCC(CC(=O)O)c1cc(F)c(N(CC(C)C)CC(C)C)c(Nc2ccc(C#N)cc2)c1 (single isomer, unassigned) [Example 123, 3-(3-((4-cyanophenyl)amino)-4-(diisobutylamino)-5-fluorophenyl)pentanoic acid] | < 5 |
| CCC(CC(=O)O)c1cc(F)c(N(CC(C)C)CC(C)C)c(NC(=O)c2ccc(Cl)cc2)c1 (single isomer, unassigned) [Example 128, 3-(3-(4-Chlorobenzamido)-4-(diisobutylamino)-5-fluorophenyl)pentanoic acid] | > 50 |
| CC(C)CN(CC(C)C)c1c(F)cc(C(CC(=O)O)c2ccccc2)cc1Nc1ccc(Cl)cc1 (single isomer, unassigned) [Example 131, 3-(3-((4-chlorophenyl)amino)-4-(diisobutylamino)-5-fluorophenyl)-3-phenylpropanoic acid] | < 50 |

Other lines, results leading:

| IC50 [nM] | Compound |
| --- | --- |
| < 50 | 3-(4-((1,1-dioxidotetrahydro-2H-thiopyran-4-yl)(ethyl)amino)-3-((4-fluorophenyl)amino)phenyl)-4-isopropoxybutanoic acid [Example 300] |
| < 5 | COCC(CC(=O)O)c1ccc(N(CC(C)C)C2CCC(OC)CC2)c(NC(=O)Nc2ccc(Cl)cc2F)c1 (racemic) [Example 1006, (+/−)-3-(3-(3-(4-Chloro-2-fluorophenyl)ureido)-4-(isobutyl((1r,4r)-4-methoxycyclohexyl)amino)phenyl)-4-methoxybutanoic acid] |
| < 5 | CCC(CC(=O)O)c1ccc(N(CC(C)C)C2CCCCC2)c(NC(=O)Cc2ccc(C)cc2)c1 (racemic) [Example 1084] |
| < 5 | CCC(CC(=O)O)c1ccc(N(CC(C)C)C2CCCCC2)c(NC(=O)Cc2ccc(C#N)cc2)c1 (racemic) [Example 1086] |
| > 50 | CCC(CC(=O)O)c1ccc(N(CCC(C)C)C2CCCCC2)c(NC(=O)Cc2ccc(F)cc2)c1 (racemic) [Example 1089] |
| < 5 | CCC(CC(=O)O)c1cc(F)c(N(CC(C)C)C2CCCCC2)c(NC(=O)Nc2ccc(C)cc2)c1 (racemic) [Example 1091] |
| < 50 | COCC(CC(=O)O)c1ccc(N(CC(C)C)C2CCC(OC)CC2)c(NC(=O)Nc2ccc(C)cc2)c1 (racemic) [Example 1147] |
| > 50 | COCC(CC(=O)OC)c1ccc(N(CC(C)C)C2CCC(OC)CC2)c(NC(=O)Nc2ccc(Cl)cc2F)c1 (racemic) [Example 1148] |
| > 50 | Cc1nc2ccc(Nc3cc(C(CC(=O)O)c4ccccc4)cc(F)c3N(CC(C)C)CC(C)C)cc2s1 (single isomer, unassigned) [Example 132, 3-(4-(diisobutylamino)-3-fluoro-5-((2-methylbenzo[d]thiazol-6-yl)amino)phenyl)-3-phenylpropanoic acid] |
| < 5 | CC(CC(=O)O)c1ccc(N(CC(C)(C)O)C2CCOCC2)c(Nc2ccc(Cl)cc2)c1 (single isomer, unassigned) [Example 193, 3-(3-((4-chlorophenyl)amino)-4-((2-hydroxy-2-methylpropyl)(tetrahydro-2H-pyran-4-yl)amino)phenyl)butanoic acid] |
| > 50 | CC[C@@H](CC(=O)O)c1ccc(N(CC(C)C)C2CCS(=O)(=O)CC2)c(NC(=O)Nc2cc(C)on2)c1 (single isomer, unassigned) [Example 218] |
| < 5 | CCc1ccc(Nc2cc([C@@H](CC)CC(=O)O)ccc2N(CC(C)(C)O)C2CCCCC2)cc1 (single isomer, unassigned) [Example 228] |
| > 50 | CCc1cnc(Nc2cc([C@@H](CC)CC(=O)O)ccc2N(CC)C2CCCCC2)nc1 (single isomer, unassigned) [Example 280] |
| < 5 | CCOc1ncc(Nc2cc(C(CC)CC(=O)O)ccc2N(CC(C)C)C2CCCCC2)cn1 (single isomer, unassigned) [Example 303, 3-(4-(cyclohexyl(isobutyl)amino)-3-((2-ethoxypyrimidin-5-yl)amino)phenyl)pentanoic acid] |
| < 5 | CCC(CC(=O)O)c1ccc(N(CC(C)C)C2CCCCC2)c(Nc2ccc(F)c(F)c2)c1 (single isomer, unassigned) [Example 306, 3-(4-(cyclohexyl(isobutyl)amino)-3-((3,4-difluorophenyl)amino)phenyl)pentanoic acid] |
